Converted amounts (≈) assume the structure as drawn.
Key:
[1] = Inhibition of Plasmodium falciparum DHODH expressed in Escherichia coli BL21-DE3 using L-dihydroorotate as substrate by steady-state DCIP method
[2] = Inhibition of Plasmodium vivax DHODH expressed in Escherichia coli BL21-DE3 using L-dihydroorotate as substrate by steady-state DCIP method
[3] = target: Dihydroorotate dehydrogenase (quinone), mitochondrial (Rattus norvegicus, UniProt Q63707); experiment: Inhibition of rat DHODH up to 100 uM; settings: up to 100 µM
Sequence of Dihydroorotate dehydrogenase (quinone), mitochondrial (Rattus norvegicus, UniProt Q63707) (Q63707 whole entry): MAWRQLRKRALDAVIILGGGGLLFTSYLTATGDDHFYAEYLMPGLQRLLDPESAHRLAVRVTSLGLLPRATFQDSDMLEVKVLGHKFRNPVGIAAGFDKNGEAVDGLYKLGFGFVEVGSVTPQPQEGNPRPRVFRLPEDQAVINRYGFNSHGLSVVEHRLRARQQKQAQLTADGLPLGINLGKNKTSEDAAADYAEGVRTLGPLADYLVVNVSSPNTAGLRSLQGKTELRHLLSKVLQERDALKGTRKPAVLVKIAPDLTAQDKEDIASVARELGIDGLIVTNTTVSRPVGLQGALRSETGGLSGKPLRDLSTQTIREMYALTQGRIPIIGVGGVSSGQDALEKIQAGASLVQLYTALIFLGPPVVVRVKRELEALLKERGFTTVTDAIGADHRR

[4] = target: Dihydroorotate dehydrogenase (quinone), mitochondrial (Mus musculus, UniProt O35435); experiment: Inhibition of mouse DHODH up to 100 uM; settings: up to 100 µM
Sequence of Dihydroorotate dehydrogenase (quinone), mitochondrial (Mus musculus, UniProt O35435) (O35435 whole entry): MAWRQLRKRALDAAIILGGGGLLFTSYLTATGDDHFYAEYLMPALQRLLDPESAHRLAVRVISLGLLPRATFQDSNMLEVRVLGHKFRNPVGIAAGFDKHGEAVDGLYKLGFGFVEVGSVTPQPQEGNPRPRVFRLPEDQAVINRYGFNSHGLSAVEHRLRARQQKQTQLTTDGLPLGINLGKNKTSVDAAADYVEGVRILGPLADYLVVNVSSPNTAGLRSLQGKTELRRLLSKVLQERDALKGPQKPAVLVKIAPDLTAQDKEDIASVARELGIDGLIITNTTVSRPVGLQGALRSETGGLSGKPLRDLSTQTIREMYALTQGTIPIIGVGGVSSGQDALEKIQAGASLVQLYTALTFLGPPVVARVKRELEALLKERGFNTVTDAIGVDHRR

[5] = Inhibition of dog DHODH up to 100 uM; set-up: species or system Canis lupus familiaris; settings: up to 100 µM
L1210 = experiment: Cytotoxicity against mouse L1210 cells; format: cell-based
HepG2 = experiment: Cytotoxicity against human HepG2 cells; format: cell-based
Albumin = Albumin (Bos taurus, UniProt P02769); experiment: Binding affinity to bovine serum albumin by Albumax assay; format: ADME; settings: cattle, isolated protein
Sequence of Albumin (P02769 whole entry): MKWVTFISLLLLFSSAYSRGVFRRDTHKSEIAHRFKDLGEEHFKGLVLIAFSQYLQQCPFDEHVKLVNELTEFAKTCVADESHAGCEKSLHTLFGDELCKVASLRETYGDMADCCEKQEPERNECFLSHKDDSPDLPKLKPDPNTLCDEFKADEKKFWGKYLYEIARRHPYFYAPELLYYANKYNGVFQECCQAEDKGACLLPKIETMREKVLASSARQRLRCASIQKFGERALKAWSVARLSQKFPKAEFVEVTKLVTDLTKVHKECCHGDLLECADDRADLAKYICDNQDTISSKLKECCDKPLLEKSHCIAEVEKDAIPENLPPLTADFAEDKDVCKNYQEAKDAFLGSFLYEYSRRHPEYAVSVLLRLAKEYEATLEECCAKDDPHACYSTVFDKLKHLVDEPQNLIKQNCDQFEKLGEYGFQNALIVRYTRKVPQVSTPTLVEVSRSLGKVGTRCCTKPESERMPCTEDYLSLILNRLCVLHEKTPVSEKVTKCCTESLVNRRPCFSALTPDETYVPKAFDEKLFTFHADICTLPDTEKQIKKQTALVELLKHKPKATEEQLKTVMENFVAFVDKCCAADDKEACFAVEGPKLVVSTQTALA

[6] = Binding affinity to microsome (unknown origin); format: ADME; settings: microsomes
[7] = Intrinsic clearance in mouse liver microsomes at 1 uM measured up to 4 hrs by LC-MS analysis; format: ADME, Microsome
[8] = Unbound intrinsic clearance in mouse liver microsomes at 1 uM measured up to 4 hrs by LC-MS analysis; format: ADME, Microsome
[9] = Half life in Swiss mouse at 20 mg/kg, po measured up to 24 hrs by LC-MS analysis; format: ADME, organism-based; settings: in vivo
[10] = Tmax in Swiss mouse at 20 mg/kg, po measured up to 24 hrs by LC-MS analysis; format: ADME, organism-based; settings: in vivo
[11] = Cmax in Swiss mouse at 20 mg/kg, po measured up to 24 hrs by LC-MS analysis; format: ADME, organism-based; set-up: route oral, dose 20 mg/kg, time <=24; settings: in vivo
[12] = AUC (0 to infinity) in Swiss mouse at 20 mg/kg, po measured up to 24 hrs by LC-MS analysis; format: ADME, organism-based; set-up: route oral, dose 20 mg/kg, time <=24; settings: in vivo
[13] = Plasma clearance in Sprague-Dawley rat at […], iv measured up to 24 hrs; format: ADME, organism-based
[14] = Volume of distribution at steady state in Sprague-Dawley rat at […], iv measured up to 24 hrs; format: ADME, organism-based; settings: in vivo, read-out: Vdss
[15] = Apparent half life in Sprague-Dawley rat at 31 mg/kg, po measured up to 24 hrs; format: ADME, organism-based; settings: in vivo, read-out: t1/2(app) (converted)
[16] = Tmax in Sprague-Dawley rat at 31 mg/kg, po measured up to 24 hrs; format: ADME, organism-based; settings: in vivo
[17] = Cmax in Sprague-Dawley rat at 31 mg/kg, po measured up to 24 hrs; format: ADME, organism-based; set-up: route oral, dose 31 mg/kg, time <=24; settings: in vivo
[18] = AUC (0 to infinity) in Sprague-Dawley rat at 31 mg/kg, po measured up to 24 hrs; format: ADME, organism-based; set-up: route oral, dose 31 mg/kg, time <=24; settings: in vivo
[19] = Oral bioavailability in Sprague-Dawley rat at 31 mg/kg measured up to 24 hrs; format: ADME, organism-based; settings: in vivo
Plasmodium falciparum [20] = experiment: Antiplasmodial activity against asexual blood stage chloroquine and pyrimethamine-resistant Plasmodium falciparum Dd2 infected in human erythrocytes assessed as parasite killing; format: functional, organism-based
Plasmodium falciparum [21] = tested on: Plasmodium falciparum
Cytochrome P450 2B6 = target: T1, Cytochrome P450 2B6 (Homo sapiens, UniProt P20813)
T1 sequence (P20813 whole entry): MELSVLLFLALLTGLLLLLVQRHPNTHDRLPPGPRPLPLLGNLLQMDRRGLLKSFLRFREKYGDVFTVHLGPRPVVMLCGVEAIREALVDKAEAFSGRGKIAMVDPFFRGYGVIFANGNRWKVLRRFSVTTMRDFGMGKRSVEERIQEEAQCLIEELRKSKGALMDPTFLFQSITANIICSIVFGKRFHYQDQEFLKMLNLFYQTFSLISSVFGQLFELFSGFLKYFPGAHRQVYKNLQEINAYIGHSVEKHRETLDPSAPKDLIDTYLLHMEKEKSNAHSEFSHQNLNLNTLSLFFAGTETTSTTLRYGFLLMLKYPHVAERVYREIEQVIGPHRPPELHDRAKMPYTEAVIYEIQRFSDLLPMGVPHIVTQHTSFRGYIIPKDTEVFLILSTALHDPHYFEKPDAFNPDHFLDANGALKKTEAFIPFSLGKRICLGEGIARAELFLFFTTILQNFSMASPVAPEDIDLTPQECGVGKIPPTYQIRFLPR

Cytochrome P450 2C8 = target: T2, Cytochrome P450 2C8 (Homo sapiens, UniProt P10632)
T2 sequence (P10632 whole entry): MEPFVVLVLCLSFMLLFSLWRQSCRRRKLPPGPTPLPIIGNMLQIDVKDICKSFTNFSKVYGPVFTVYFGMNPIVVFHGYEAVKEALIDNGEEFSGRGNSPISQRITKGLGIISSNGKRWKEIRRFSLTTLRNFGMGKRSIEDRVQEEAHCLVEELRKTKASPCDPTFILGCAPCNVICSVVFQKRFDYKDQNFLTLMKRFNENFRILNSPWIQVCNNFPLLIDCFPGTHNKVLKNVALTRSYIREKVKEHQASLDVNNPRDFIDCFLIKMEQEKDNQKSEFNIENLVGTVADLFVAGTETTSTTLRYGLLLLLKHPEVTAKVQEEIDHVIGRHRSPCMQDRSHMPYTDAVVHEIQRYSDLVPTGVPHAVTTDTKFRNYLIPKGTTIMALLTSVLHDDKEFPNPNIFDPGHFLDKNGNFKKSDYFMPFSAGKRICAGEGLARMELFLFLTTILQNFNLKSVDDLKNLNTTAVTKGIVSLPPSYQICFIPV

Cytochrome P450 3A4 = Cytochrome P450 3A4 (Homo sapiens, UniProt P08684)
Sequence of Cytochrome P450 3A4 (P08684 whole entry): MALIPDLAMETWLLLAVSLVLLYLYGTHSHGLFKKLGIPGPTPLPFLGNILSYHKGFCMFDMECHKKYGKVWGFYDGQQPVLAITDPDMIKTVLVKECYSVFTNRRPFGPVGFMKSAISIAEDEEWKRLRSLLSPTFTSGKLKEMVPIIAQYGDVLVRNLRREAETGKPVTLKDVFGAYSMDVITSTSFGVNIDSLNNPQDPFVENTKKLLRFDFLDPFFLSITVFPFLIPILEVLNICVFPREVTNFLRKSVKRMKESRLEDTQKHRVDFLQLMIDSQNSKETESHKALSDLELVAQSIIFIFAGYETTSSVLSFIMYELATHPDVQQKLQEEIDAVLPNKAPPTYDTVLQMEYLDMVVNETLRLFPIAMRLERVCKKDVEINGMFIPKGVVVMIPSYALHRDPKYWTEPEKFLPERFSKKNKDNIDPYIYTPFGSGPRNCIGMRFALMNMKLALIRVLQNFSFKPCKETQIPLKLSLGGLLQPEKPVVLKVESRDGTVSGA

[22] = buffer, pH 1.6, 1 h
[23] = simulated gi fluid, pH 6.5, 5 h
[24] = simulated gi fluid, pH 5.8, 5 h
[25] = buffer, pH 7.4, 5 h
[26] = human, plasma
[27] = rat, plasma
[28] = mouse, plasma
in vitro [29] = settings: rat, blood and plasma
in vitro [30] = settings: mouse, blood and plasma
[31] = Apparent half life in Sprague-Dawley rat at 32 mg/kg, po measured up to 24 hrs; format: ADME, organism-based; settings: in vivo, read-out: t1/2(app) (converted)
[32] = Tmax in Sprague-Dawley rat at 32 mg/kg, po measured up to 24 hrs; format: ADME, organism-based; settings: in vivo
[33] = Cmax in Sprague-Dawley rat at 32 mg/kg, po measured up to 24 hrs; format: ADME, organism-based; set-up: route oral, dose 32 mg/kg, time <=24; settings: in vivo
[34] = AUC (0 to infinity) in Sprague-Dawley rat at 32 mg/kg, po measured up to 24 hrs; format: ADME, organism-based; set-up: route oral, dose 32 mg/kg, time <=24; settings: in vivo
[35] = Oral bioavailability in Sprague-Dawley rat at 32 mg/kg measured up to 24 hrs; format: ADME, organism-based; settings: in vivo
Plasmodium falciparum [36] = experiment: Antiplasmodial activity against asexual blood stage Plasmodium falciparum D10 expressing yeast DHODH infected in human erythrocytes assessed as parasite killing; format: functional, organism-based
Plasmodium falciparum [37] = experiment: Antiplasmodial activity against asexual blood stage Plasmodium falciparum D10 expressing yeast DHODH infected in human erythrocytes assessed as parasite killing in presence of proguanil; format: functional, organism-based
Plasmodium falciparum [38] = experiment: Antiplasmodial activity against Plasmodium falciparum 3D7 Uganda infected in human erythrocytes assessed as parasite killing using albumax media measured after 72 hrs by SYBR Green assay; format: functional, organism-based; settings: 3D7, 72 h
Plasmodium falciparum [39] = experiment: Antiplasmodial activity against Plasmodium falciparum Dd2 Uganda infected in human erythrocytes assessed as parasite killing using albumax media measured after 72 hrs by SYBR Green assay; format: functional, organism-based; settings: Dd2, 72 h
Plasmodium falciparum [40] = experiment: Antiplasmodial activity against Plasmodium falciparum Uganda field isolated from patients infected in human erythrocytes assessed as parasite killing using albumax media measured after 72 hrs by SYBR Green assay; format: functional, organism-based

Row | Compound | IC50 [1] [nM] | IC50 [2] [nM] | inhibition (INH) [3] | inhibition (INH) [4] | inhibition (INH) [5] | Activity (L1210) | Activity (HepG2) | Activity (Albumin) [%] | Activity [6] [%] | Intrinsic clearance [7] [µL/min/mg] | CL free [8] [µL/min/mg] | half-life [9] [h] | Tmax [10] [h] | Cmax [11] [µM] | AUC(0-inf) [12] [µM·h] | IC50 (Cytochrome P450 2C8) [nM] | TDI (Cytochrome P450 3A4) | solubility [22] [µg/mL] | solubility [23] [µg/mL] | solubility [24] [µg/mL] | also measured
1 | Cc1c(Cc2ccc(C(F)(F)F)nc2)c[nH]c1C(=O)NC(C)c1cn[nH]c1 (stereo in doubt; form 1) | 47 | 43 | Not Active | Not Active | Not Active | Non-Toxic | Non-Toxic | 49.5 | 40.5 | 31 | 52 | 4.4 | 1 | 6.4 | 65 | 18300 | Active | 81 (≈ 215 µM) | 34 (≈ 90.1 µM) | 81 (≈ 215 µM) | clearance at 24 h ([13]; dose 2.9 mg/kg): 6.2 mL/min/kg; Vd at 24 h ([14]; dose 2.9 mg/kg): 1.7 L/kg; half-life [15]: 3.4 h; Tmax [16]: 3 h; Cmax [17]: 2.4 µM; AUC(0-inf) [18]: 22 µM·h; bioavailability [19]: 10%; EC50 (Plasmodium falciparum [20]): 2.4 nM; EC50 (Plasmodium falciparum [21]): 4.5 nM; IC50 (Cytochrome P450 2B6): > 20000 nM; solubility [25]: 23 µg/mL (≈ 60.9 µM); PPB [26]: 84%; PPB [27]: 91.4%; PPB [28]: 92.1%; blood plasma ratio (in vitro [29]): 1.3; blood plasma ratio (in vitro [30]): 1.4
2 | Cc1c(Cc2ccc(C(F)(F)F)nc2)c[nH]c1C(=O)NC(C)c1cnn(C)c1 (stereo in doubt; form 1) | 46 | 3.9 | Not Active | Not Active | Not Active | Non-Toxic | Non-Toxic | 49.5 | 44.8 | 41 | 75 | 3.5 | 1 | 36 | 217 | > 20000 | Not Active | 113 (≈ 289 µM) | 60 (≈ 153 µM) | 158 (≈ 404 µM) | clearance at 24 h ([13]; dose 2.8 mg/kg): 2.4 mL/min/kg; Vd at 24 h ([14]; dose 2.8 mg/kg): 0.87 L/kg; half-life [31]: 3.7 h; Tmax [32]: 3.5 h; Cmax [33]: 35 µM; AUC(0-inf) [34]: 360 µM·h; bioavailability [35]: 61%; EC50 (Plasmodium falciparum [36]): > 10000 nM; EC50 (Plasmodium falciparum [37]): > 10000 nM; EC50 (Plasmodium falciparum [38]): 6.2 nM; EC50 (Plasmodium falciparum [39]): 5.9 nM; EC50 (Plasmodium falciparum [40]): 9.8 nM; PPB [26]: 83%; PPB [27]: 95.1%; PPB [28]: 93.6%
